In brackets after ≈: the same amount, converted by molar mass. Like-named read-outs stand apart in the source and are kept apart here.
Assays:
[1] = system: A549 human lung carcinoma epithelial cells; assay: SRB cytotoxicity assay, A549 cells; details: for Selectivity Index (SI): A549 (cancerous) versus NIH/3T3 (non-cancerous), SRB 72 h; for IC50: Homo sapiens, A549, 72 h, read-out: IC50, cytotoxicity against A549 cells
Procedure: After incubation, cells were fixed with trichloroacetic acid (Cat. No. T4885, Sigma-Aldrich, USA), stained with SRB (Cat. No. S9012, Sigma-Aldrich, USA), and the absorbance was measured at 515 nm. Percent cell death was calculated using the following equation: % Cell death=(ODc−OD0)‐(ODs−OD0)/(ODc−OD0)×100
(§1) OD0 = Optical density of cells before treatment (baseline reading).
ODC = Optical density of untreated control cells after 72 h.
ODS = Optical density of cells treated with the test sample after 72 h.
Non-linear regression analysis was performed using GraphPad Prism to calculate the IC50 value. This value reflects the concentration needed to inhibit cell growth by 50%.
All data are presented as mean ± standard error of the mean (SEM) and were collected from three separate experiments. Statistical analyses were conducted using Student’s t-test or ANOVA, followed by Tukey’s multiple comparisons test. Significance is indicated by *p < 0.05, **p < 0.01, and ***p < 0.001.

[2] = system: LPS-induced nitric oxide (NO) production in RAW 264.7 cells; assay: Inhibition of NO generation in LPS-induced RAW 264.7 cells (Griess); format: cell-based, murine; details: for IC50: Mus musculus
Procedure: The nitrite concentration in the culture medium was measured to indicate nitric oxide (NO) production as previously described (Min et al. [2009]). The murine macrophage RAW 264.7 cell line was obtained from ATCC, Manassas, VA, USA, and maintained in Dulbecco’s modified Eagle’s medium supplemented with 10% heat-inactivated FBS (Cat. No. A5670801, Gibco BRL Co, Grand Island, NY, USA), penicillin G (100 units/mL) (Cat. No. P7794, Sigma-Aldrich, USA), streptomycin (100 µg/mL) (Cat. No. S9137, Sigma-Aldrich, USA), and L-glutamine (2 mM) (Cat. No. 25030081, Gibco BRL Co, Grand Island, NY, USA). In brief, RAW 264.7 cells were seeded at a density of 4 × 10^4 cells/well in phenol red-free media (Cat. No. 11835030, Gibco, USA) in a 96-well plate, and incubated in a humidified incubator with 5% CO2 at 37 °C for 24 hr. […] The concentration of nitric oxide production was assessed using the Griess reagent, which consists of a 1:1 (v/v) mixture of 1% sulfanilamide (Cat No. A13001, Alfa Aesar, Massachusetts, USA) in H3PO4 and N-(1-naphthyl)ethylenediamine dihydrochloride (Cat. No. 102397, MP Biomedicals, USA). Absorbance was recorded with a microplate reader (SynergyMx, BioTeK, Winooski, VT, USA) at 540 nm. A standard curve was created using sodium nitrite (1–100 μM) (Cat. No. 44227, Alfa Aesar, Massachusetts, USA). A sulforhodamine B (SRB) assay was employed to assess the cellular viability of the samples with RAW 264.7 cells under a similar experimental setup. The final % inhibition of NO production was adjusted based on cell viability.

S. marcescent = assay: Antibacterial MIC, broth microdilution with resazurin; format: cell-based, Serratia marcescens; details: Serratia marcescens, Gram-negative, read-out: MIC
Source text: Methicillin-resistant Staphylococcus aureus (MRSA), methicillin-susceptible S. aureus (MSSA), and Gram-negative clinical isolates of bacteria [Escherichia coli (9637) and Serratia marcescens ATCC 13880] were used for this study. […] MSSA HBP10, MSSA LUU7, MSSA R113, S. aureus ONE9, and MSSA POB2 were isolated in Hawaiʻi (Gerken et al. [2021]). Mueller Hinton Broth (MHB, GTIN:00382902979630, Becton, Dickinson and Company, Franklin Lakes, NJ, USA) and Mueller Hinton Agar (MHA, GTIN:00382902252504, Becton, Dickinson and Company, Franklin Lakes, NJ, USA,) were used for bacterial inoculation. MRSA was a pathogen strain causing hospital-acquired infections in 1982. This strain easily acquires resistance to antibiotics, such as vancomycin. MSSA strains isolated from the Island of Hawaiʻi included: Honolʻii Beach Park (HBP10) carry the genes erm(C), aph(3′)-III, and mecA, which provide resistance to macrolide, aminoglycoside, and beta-lactam antibiotics, respectively; Wailuku River (LUU7) which contains the blaZ gene (beta-lactam resistance) (Gerken et al. [2021]). Richardson’s Beach Park (R113) and Onekahakaha (ONE9) which is known for its virulence factors (hlgA, hlgB, hlgC, lukD, and lukE).
(§2) The minimum inhibitory concentrations (MICs) were determined using a two-fold serial dilution method with MHB following the recommendations of the Clinical and Laboratory Standards Institute (CLSI [2012]; Elshikh et al. [2016]). In brief, serial two-fold dilutions of the samples in DMSO were mixed with MHB in a 96-well microplate. Then, 50 µL of bacteria suspension was added to each well, resulting in a final concentration of 1 × 10^4 colony-forming units/well. The plates were incubated at 35–37 °C for 18–24 hr. After incubation, 10 µL of 0.18% resazurin (Cat. No. R7017, Sigma-Aldrich, USA) was added to each well (Elshikh et al. [2016]). The MIC was assessed within 2–3 hr after the addition of resazurin. All antimicrobial assays were performed in triplicate, using vancomycin (Cat. No. SBR00001, Sigma-Aldrich, USA) and gentamicin (Cat. No. G1397, Sigma-Aldrich, USA) as standard controls.

S. aureus CART817 = assay: as above; format: cell-based; details: Staphylococcus aureus; S. aureus CART817, Gram-positive; read-out: MIC
Procedure: as §2

[3] = SRB cytotoxicity assay, NIH/3T3 cells; format: cell-based, murine; details: mouse, NIH/3T3 fibroblasts (non-tumorigenic)
Source text: as §1

Compound	cytotoxic response against A549 cells (in words) ([1]; SRB assay, 72 h, highest concentration tested 100 µg/ml)	NO inhibitory activity (in words) ([2]; RAW 264.7 cells, LPS-induced, highest concentration 50 μg/mL)	MIC (S. marcescent)	MIC (S. aureus CART817)	Selectivity Index (SI) [1]	IC50 [1]	IC50 at 72 h [3]	IC50 ([2]; RAW264.7, RAW 264.7 cells, LPS 1 μg/mL, adjusted for cell viability, read-out: IC50, inhibition of LPS-induced NO production)	inhibition of NO production at 5 µg/ml (in words) ([2]; RAW 264.7 cells, LPS-induced)	IC50 ([2]; RAW264.7, read-out: IC50, inhibition of LPS-induced NO production)
Nc1ccn([C@H]2C[C@H](O)[C@@H](CO)O2)c(=O)n1 [Compound 1, deoxycytidine]	no cytotoxic response	no significant NO inhibitory activity	128 µg/mL (≈ 563 µM)	128 µg/mL (≈ 563 µM)						
CC(C)CCC[C@@H](C)[C@H]1CC[C@H]2[C@@H]3CC=C4C[C@@H](O)CC[C@]4(C)[C@H]3CC[C@]12C [Compound 9, cholesterol]			128 µg/mL (≈ 331 µM)	128 µg/mL (≈ 331 µM)	1.03	176 ± 5.3 µM	181 ± 8.04 µM	50.2 ± 2.2 µM	significant (p > 0.001) inhibition	
CC(C)CCC[C@@H](C)[C@H]1CCC2[C@@]34C=C[C@]5(C[C@@H](O)CC[C@]5(C)C3CC[C@@]21C)OO4 (some centres unmarked) [Compound 10, 7-dehydrochoresterol peroxide]			64 µg/mL (≈ 154 µM)	128 µg/mL (≈ 307 µM)	1.12	86.1 µM	96.6 ± 4.34 µM		significant (p > 0.001) inhibition	53.6 ± 2.3 µM
CC(C)CCC[C@@H](C)[C@H]1CCC2[C@]1(C)CC=C1[C@]23C=C[C@]2(C[C@@H](O)CC[C@]12C)OO3 (stereo partly drawn) [Compound 11, (3β-5α-8α)5,8-epidioxycholesta-6,9(1)-diene-3-ol]			64 µg/mL (≈ 154 µM)	128 µg/mL (≈ 309 µM)	1.05	137 ± 4.4 µM	144 ± 6.15 µM			

From PMC12203697, “Bioactive constituents from the edible seaweed Halymenia hawaiiana (Rhodophyta)” (Pharmaceutical Biology, 2025)
